Experimental data taken from patent publication US20200392150A1, “Diaryl-B-Lactam Compound and Preparation Method and Pharmaceutical Use Thereof” (Fudan University, priority 2016, published 2020).
Where a name gives a salt, the structure may show the parent alone.

What was measured:
MDA-MB-231 = experiment: In vitro cell growth inhibition assay (MTT); format: cell-based, human; settings: MDA-MB-231 human breast cancer cell line, 48 h, MTT; read-out: IC50 MDA-MB-231
Summary of the method: (§1)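 5000 cells/well, overnight attachment; compounds 48 h (vehicle 0.2% DMSO); MTT 0.5 mg/mL, 4 h, 37° C; formazan in DMSO; A540. IC50 from growth inhibition rates.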

SKOV3 = experiment: In vitro cell growth inhibition assay (MTT); format: cell-based, human; settings: SK-OV-3; SKOV-3 human ovarian cancer cell line, 48 h, MTT; read-out: IC50 SKOV3
Summary of the method: as §1

A2780 = experiment: In vitro cell growth inhibition assay (MTT); format: cell-based, human; settings: A2780 human ovarian cancer cell line, 48 h, MTT; read-out: IC50 A2780
Summary of the method: as §1

Hela = experiment: In vitro cell growth inhibition assay (MTT); format: cell-based, human; settings: Hela human cervical cancer cell line, 48 h, MTT; read-out: IC50 Hela
Summary of the method: as §1

Row | Structure (SMILES) | melting point [°C] | IC50 (MDA-MB-231) [nM] | IC50 (SKOV3) [nM] | IC50 (A2780) [nM] | IC50 (Hela) [nM]
1 | C=C1C(=O)N(c2ccc(OC)cc2)[C@H]1c1ccc(OC)c(O)c1 [Compound 52, (S)-1-(4-methoxyphenyl)-4-(3-hydroxy-4-methoxyphenyl)-3-methyleneazetidin-2-one] | 180 to 181 | > 20000 | > 20000 | > 20000 | > 20000
2 | C=C1C(=O)N(c2cc(OC)c(OC)c(OC)c2)[C@H]1c1ccc(OC)c(OS(=O)(=O)CCCC)c1 [Compound 31, (S)-2-methoxy-5-(3-methylene-4-oxo-1-(3,4,5-trimethoxyphenyl)azetidin-2-yl)phenyl butane-1-sulfonate] | 99 to 100 | 7290 | 10200 | 5320 | 14000
3 | C=C1C(=O)N(c2cc(OC)c(OC)c(OC)c2)[C@H]1c1ccc(OC)c(OCCN2CCOCC2)c1 [Compound 15, (S)-4-(4-methoxy-3-(2-morpholinoethoxy)phenyl)-3-methylene-1-(3,4,5-trimethoxyphenyl)azetidin-2-one] | 86 to 87 | > 10000 | > 10000 | > 10000 | > 10000
4 | C=C1C(=O)N(c2cc(OC)c(OC)c(OC)c2)[C@H]1c1ccc(OC)c(OCC)c1 [Compound 3, (S)-4-(3-ethoxy-4-methoxyphenyl)-3-methylene-1-(3,4,5-trimethoxyphenyl)azetidin-2-one] | 92 to 93 | 958 | 1140 | 854 | 2030
5 | COc1ccc([C@H]2/C(=C/C[Si](C)(C)C)C(=O)N2c2cc(OC)c(OC)c(OC)c2)cc1O [Compound 53, (S,Z)-4-(3-hydroxy-4-methoxyphenyl)-1-(3,4,5-trimethoxyphenyl)-3-(2-(trimethylsilyl)ethylidene)azetidin-2-one] | 67 to 69 | > 10000 | > 10000 | > 10000 | > 10000
6 | C=C1C(=O)N(c2cc(OC)c(OC)c(OC)c2)[C@H]1c1ccc(OC)c(OS(=O)(=O)c2ccc(C)cc2)c1 (as salt: benzenesulfonate) [Compound 27, (S)-2-methoxy-5-(3-methylene-4-oxo-1-(3,4,5-trimethoxyphenyl)azetidin-2-yl)phenyl 4-methylbenzenesulfonate] | 162 to 163 |  |  |  | 
7 | C=C1C(=O)N(c2cc(OC)c(OC)c(OC)c2)[C@H]1c1ccc(OC)c(NS(N)(=O)=O)c1 [Compound 44, (S)—N-(2-methoxy-5-(3-methylene-4-oxo-1-(3,4,5-trimethoxyphenyl)azetidin-2-yl)phenyl)sulfamoylamide] | 101 to 102 | 841 | 833 | 354 | 456
8 | C=C1C(=O)N(c2cc(OC)c(OC)c(OC)c2)[C@H]1c1ccc(OC)c(OC(=O)c2cccnc2)c1 [Compound 22, (S)-2-methoxy-5-(3-methylene-4-oxo-1-(3,4,5-trimethoxyphenyl)azetidin-2-yl)phenyl nicotinate] | 113 to 114 | 151 | 75 | 112 | 115
9 | C=C1C(=O)N(c2cc(OC)c(OC)c(OC)c2)[C@H]1c1ccc(OC)c(OCc2ccccc2)c1 [Compound 47, (S)-4-(3-(benzyloxy)-4-methoxyphenyl)-3-methylene-1-(3,4,5-trimethoxyphenyl)azetidin-2-one] | 133 to 134 | > 20000 | > 20000 | > 20000 | > 20000
10 | C=C1C(=O)N(c2cc(OC)c(OC)c(OC)c2)[C@H]1c1ccc(OC)c(OS(=O)(=O)c2ccc(NC(C)=O)cc2)c1 (as salt: benzenesulfonate) [Compound 30, (S)-2-methoxy-5-(3-methylene-4-oxo-1-(3,4,5-trimethoxyphenyl)azetidin-2-yl)phenyl 4-acetamidobenzenesulfonate] | 87 to 88 |  |  |  | 
11 | C=C1C(=O)N(c2cc(OC)c(OC)c(OC)c2)[C@H]1c1ccc(OC)c(OS(=O)(=O)c2ccc(OC)c(OC)c2)c1 (as salt: benzenesulfonate) [Compound 33, (S)-2-methoxy-5-(3-methylene-4-oxo-1-(3,4,5-trimethoxyphenyl)azetidin-2-yl)phenyl 3,4-dimethoxybenzenesulfonate] | 70 to 71 |  |  |  | 
12 | C=C1C(=O)N(c2cc(OC)c(OC)c(OC)c2)[C@H]1c1ccc(OC)c(OS(=O)(=O)Cc2ccccc2)c1 (as salt: methanesulfonate) [Compound 32, (S)-2-methoxy-5-(3-methylene-4-oxo-1-(3,4,5-trimethoxyphenyl)azetidin-2-yl)phenyl phenylmethanesulfonate] | 58 to 59 |  |  |  | 
13 | COc1ccc([C@@H]2[C@@H](C)C(=O)N2c2cc(OC)c(OC)c(OC)c2)cc1O [Compound 102, (3R,4S)-4-(3-hydroxy-4-methoxyphenyl)-3-methyl-1-(3,4,5-trimethoxyphenyl)azetidin-2-one] |  | 1080 | 650 | 771 | 807
14 | COc1ccc([C@@H]2N(c3cc(OC)c(OC)c(OC)c3)C(=O)[C@]2(O)CO)cc1O [Compound 80, (3R,4S)-3-hydroxy-4-(3-hydroxy-4-methoxyphenyl)-3-(hydroxymethyl)-1-(3,4,5-trimethoxyphenyl)azetidin-2-one] |  | 4470 | 3000 | 1770 | 3420
15 | COc1ccc([C@H]2[C@@H](OC(=O)CCC(=O)O)C(=O)N2c2cc(OC)c(OC)c(OC)c2)cc1O [Compound 64, 4-(((2S,3R)-2-(3-hydroxy-4-methoxyphenyl)-4-oxo-1-(3,4,5-trimethoxyphenyl)azetidin-3-yl)oxy)-4-oxobutanoic acid] |  | 102 | 210 | 79 | 178
16 | COc1ccc([C@H]2[C@H](NC(C)=O)C(=O)N2c2cc(OC)c(OC)c(OC)c2)cc1O [Compound 77, N-((2S,3S)-2-(3-hydroxy-4-methoxyphenyl)-4-oxo-1-(3,4,5-trimethoxyphenyl)azetidin-3-yl)acetamide] |  | 47 | 32 | 33 | 35
17 | COc1ccc([C@H]2[C@@H](C)C(=O)N2c2cc(OC)c(OC)c(OC)c2)cc1OS(=O)(=O)F [Compound 108, 2-methoxy-5-((2R,3R)-3-methyl-4-oxo-1-(3,4,5-trimethoxyphenyl)azetidin-2-yl)phenyl sulfofluoridate] |  | 40 | 62 | 35 | 54
18 | COc1ccc([C@H]2[C@@H](CN(C)C)C(=O)N2c2cc(OC)c(OC)c(OC)c2)cc1O [Compound 62, (3R,4R)-3-((dimethylamino)methyl)-4-(3-hydroxy-4-methoxyphenyl)-1-(3,4,5-trimethoxyphenyl)azetidin-2-one] |  | > 20000 | > 20000 | 7720 | > 20000
19 | COc1ccc([C@H]2[C@H](Br)C(=O)N2c2cc(OC)c(OC)c(OC)c2)cc1O [Compound 66, (3S,4S)-3-bromo-4-(3-hydroxy-4-methoxyphenyl)-1-(3,4,5-trimethoxyphenyl)azetidin-2-one] |  | 10 | 9 | 8 | 13
20 | COC[C@@]1(OC)C(=O)N(c2cc(OC)c(OC)c(OC)c2)[C@H]1c1ccc(OC)c(O)c1 [Compound 81, (3R,4S)-4-(3-hydroxy-4-methoxyphenyl)-3-methoxy-3-(methoxymethyl)-1-(3,4,5-trimethoxyphenyl)azetidin-2-one] |  | 2650 | 2470 | 1750 | 2560
21 | C=C1C(=O)N(c2cc(OC)cc(OC)c2)[C@H]1c1ccc(OC)c(O)c1 [Compound 49, (S)-1-(3,5-dimethoxyphenyl)-4-(3-hydroxy-4-methoxyphenyl)-3-methyleneazetidin-2-one] |  | 125 | 175 | 112 | 295
22 | C=C1C(=O)N(c2cc(OC)c(OC)c(OC)c2)[C@H]1c1ccc(OC)c(OCC(=O)OCC)c1 [Compound 12, (5)-ethyl 2-(2-methoxy-5-(3-methylene-4-oxo-1-(3,4,5-trimethoxyphenyl)azetidin-2-yl)phenoxy)acetate] |  | > 20000 | > 20000 | > 20000 | > 20000
23 | C=C1C(=O)N(c2cc(OC)c(OC)c(OC)c2)[C@H]1c1ccc(OC)c(OCCO)c1 [Compound 8, (S)-4-(3-(2-hydroxyethoxy)-4-methoxyphenyl)-3-methylene-1-(3,4,5-trimethoxyphenyl)azetidin-2-one] |  | 845 | 832 | 344 | 925
24 | COc1ccc([C@H]2[C@H](NS(C)(=O)=O)C(=O)N2c2cc(OC)c(OC)c(OC)c2)cc1O [Compound 79, N-((2S,3S)-2-(3-hydroxy-4-methoxyphenyl)-4-oxo-1-(3,4,5-trimethoxyphenyl)azetidin-3-yl)methanesulfonamide] |  | 254 | 231 | 164 | 192
25 | CCOC(=O)CO[C@H]1C(=O)N(c2cc(OC)c(OC)c(OC)c2)[C@H]1c1ccc(OC)c(O)c1 [Compound 65, ethyl 2-(((2S,3R)-2-(3-hydroxy-4-methoxyphenyl)-4-oxo-1-(3,4,5-trimethoxyphenyl)azetidin-3-yl)oxy)acetate] |  | 672 | 721 | 423 | 669
